Drawing on ChEMBL document CHEMBL1132959, “Design of potent dicyclic (1-5/4-10) gonadotropin releasing hormone (GnRH) antagonists” (J Med Chem, 2000), this text covers Ki for 19 compounds.

Bridge positions count the residues as written; N and C are the ends. Square brackets hold non-standard residues; d marks the D form. Peptide text beside a SMILES is read from it. dPhe(4-Cl) = N[C@H](Cc1ccc(Cl)cc1)C(=O)O; dPhe(4-F) = N[C@H](Cc1ccc(F)cc1)C(=O)O; d2Nal = N[C@H](Cc1ccc2ccccc2c1)C(=O)O; NMeL = CN[C@@H](CC(C)C)C(=O)O; ΔPro = O=C(O)[C@@H]1C=CCN1; Dap = NC[C@H](N)C(=O)O; βAla = NCCC(=O)O

The test concerns the target T1, Gonadotropin-releasing hormone receptor (Rattus norvegicus, UniProt P30969).
T1 sequence (P30969 whole entry): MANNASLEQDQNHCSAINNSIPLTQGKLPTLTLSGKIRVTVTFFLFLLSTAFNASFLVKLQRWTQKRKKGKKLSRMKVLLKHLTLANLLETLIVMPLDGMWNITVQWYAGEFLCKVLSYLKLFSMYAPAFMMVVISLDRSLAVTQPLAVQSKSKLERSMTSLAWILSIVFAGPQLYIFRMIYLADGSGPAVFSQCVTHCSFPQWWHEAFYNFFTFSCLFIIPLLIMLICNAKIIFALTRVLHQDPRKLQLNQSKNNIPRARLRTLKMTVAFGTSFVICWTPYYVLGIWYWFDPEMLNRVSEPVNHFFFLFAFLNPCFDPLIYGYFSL
Description: Affinity for rat gonadotrophin releasing hormone (GnRH) receptor using HEK293 cells transfected with rat Gonadotropin-releasing hormone receptor. The format is cell-based.

Take `CC(=O)N[C@H](Cc1ccc2ccccc2c1)C(=O)N[C@@H]1CCC(=O)NCCCC[C@@H]2NC(=O)[C@H](CC(C)C)NC(=O)[C@@H](Cc3ccc4ccccc4c3)NC(=O)[C@H](CCCN=C(N)N)NC(=O)[C@H](CC(=O)NC[C@@H](C(N)=O)NC(=O)[C@@H]3CCCN3C2=O)NC(=O)[C@@H](Cc2cccnc2)NC1=O`: affinity (hek293) was put at a Ki of 15 nM. For the compound `CC(=O)N[C@H](Cc1ccc2ccccc2c1)C(=O)N[C@H](Cc1ccc(F)cc1)C(=O)N[C@H](Cc1c[nH]c2ccccc12)C(=O)N[C@H]1CC(=O)NC[C@@H](C(N)=O)NC(=O)[C@@H]2CCCN2C(=O)[C@@H]2CCCCNC(=O)CC[C@H](NC1=O)C(=O)N[C@H](CCCN=C(N)N)C(=O)N[C@@H](CC(C)C)C(=O)N2`, for the setting “hek293”, the inhibitory constant (Ki) (in general, the equilibrium dissociation constant of an inhibitor or competing ligand from its target) was found to be 0.32 nM.

The compound `CC(=O)N[C@H](Cc1ccc2ccccc2c1)C(=O)N[C@H](Cc1ccc(F)cc1)C(=O)N[C@H](Cc1cccnc1)C(=O)N[C@H]1CC(=O)NC[C@@H](C(N)=O)NC(=O)[C@@H]2CCCN2C(=O)[C@@H]2CCNC(=O)CNC(=O)CC[C@H](NC1=O)C(=O)N[C@H](CCCN=C(N)N)C(=O)N[C@@H](CC(C)C)C(=O)N2` yielded a Ki (hek293) of 0.12 nM. Same read-out and setting: under `CC(=O)N[C@H](Cc1ccc2ccccc2c1)C(=O)N[C@@H]1CCC(=O)NCCCC[C@@H](C(=O)N2CCC[C@H]2C(=O)N[C@H](C)C(N)=O)NC(=O)[C@H](CC(C)C)NC(=O)[C@@H](Cc2ccc3ccccc3c2)NC(=O)[C@H](CCCN=C(N)N)NC(=O)[C@H](C)NC(=O)[C@@H](Cc2cccnc2)NC1=O` stands 110 nM; under `CC(=O)N[C@H](Cc1ccc2ccccc2c1)C(=O)N[C@@H]1CC(=O)NC[C@@H](C(=O)N2CCC[C@H]2C(=O)N[C@H](C)C(N)=O)NC(=O)[C@H](CC(C)C)NC(=O)[C@@H](Cc2ccc3ccccc3c2)NC(=O)[C@H](CCCNC(=N)N)NC(=O)[C@H](C)NC(=O)[C@@H](Cc2cccnc2)NC1=O`, 67 nM.

The compound `CC(=O)N[C@H](Cc1ccc2ccccc2c1)C(=O)N[C@H](Cc1ccc(Cl)cc1)C(=O)N[C@@H]1CCC(=O)NCCCC[C@@H](C(=O)N2CCC[C@H]2C(=O)N[C@H](C)C(N)=O)NC(=O)[C@H](CC(C)C)NC(=O)[C@@H](Cc2ccc3ccccc3c2)NC(=O)[C@H](CCCNC(=N)N)NC(=O)[C@H](CO)NC1=O` displayed a Ki (hek293) of 23 nM. `CC(=O)N[C@H](Cc1ccc2ccccc2c1)C(=O)N[C@H](Cc1ccc(Cl)cc1)C(=O)N[C@@H]1CC(=O)NC[C@@H](C(=O)N2CCC[C@H]2C(=O)N[C@H](C)C(N)=O)NC(=O)[C@H](CC(C)C)NC(=O)[C@@H](Cc2ccc3ccccc3c2)NC(=O)[C@H](CCCN=C(N)N)NC(=O)[C@H](C)NC1=O` returned an inhibitory constant (Ki) of 21 nM. Still for that read-out and setting: under `CC(=O)N[C@H](Cc1ccc2ccccc2c1)C(=O)N[C@H](Cc1ccc(Cl)cc1)C(=O)N[C@@H]1CC(=O)NCCC[C@@H](C(=O)N2CCC[C@H]2C(=O)N[C@H](C)C(N)=O)NC(=O)[C@H](CC(C)C)NC(=O)[C@@H](Cc2ccc3ccccc3c2)NC(=O)[C@H](CCCNC(=N)N)NC(=O)[C@H](C)NC1=O` stands 14 nM; under `CC(=O)N[C@H](Cc1ccc2ccccc2c1)C(=O)N[C@H](Cc1ccc(Cl)cc1)C(=O)N[C@@H]1CC(=O)NCC[C@@H](C(=O)N2CCC[C@H]2C(=O)N[C@H](C)C(N)=O)NC(=O)[C@H](CC(C)C)NC(=O)[C@@H](Cc2ccc3ccccc3c2)NC(=O)[C@H](CCCNC(=N)N)NC(=O)[C@H](C)NC1=O`, 13 nM. Under “hek293”, `CC(=O)N[C@H](Cc1ccc2ccccc2c1)C(=O)N[C@H](Cc1ccc(Cl)cc1)C(=O)N[C@@H]1CC(=O)NCCCC[C@@H]2NC(=O)[C@H](CC(C)C)NC(=O)[C@@H](CCCNC(=N)N)NC(=O)[C@H](Cc3ccc(O)cc3)NC(=O)[C@H](CC(=O)NC[C@@H](C(N)=O)NC(=O)[C@@H]3CCCN3C2=O)NC1=O` gave a Ki of 17 nM.

For `CC(=O)N[C@H](Cc1ccc2ccccc2c1)C(=O)N[C@H](Cc1ccc(Cl)cc1)C(=O)N[C@@H]1CC(=O)NCCCC[C@@H]2NC(=O)[C@H](CC(C)C)NC(=O)[C@@H](Cc3ccc4ccccc4c3)NC(=O)[C@H](CCCNC(=N)N)NC(=O)[C@H](CC(=O)NC[C@@H](C(N)=O)NC(=O)[C@@H]3CCCN3C2=O)NC1=O`, for the setting “hek293”, the inhibition constant Ki is 11 nM.

For `CC(=O)N[C@H]1CC(=O)NCC(=O)NCC[C@H]2NC(=O)[C@H](CC(=O)NC[C@@H](C(N)=O)NC(=O)[C@@H]3CCCN3C(=O)[C@H](CCCN=C(N)N)NC(=O)[C@H](CC(C)C)NC(=O)[C@@H](Cc3ccc4ccccc4c3)NC2=O)NC(=O)[C@@H](Cc2c[nH]c3ccccc23)NC(=O)[C@@H](Cc2ccc(Cl)cc2)NC1=O`, the Ki (hek293) came to 3.1 nM. Consider `CC(=O)N[C@H](Cc1ccc2ccccc2c1)C(=O)N[C@H](Cc1ccc(Cl)cc1)C(=O)N[C@@H]1CSSC[C@@H](C(=O)N2CCC[C@H]2C(=O)N[C@H](C)C(N)=O)NC(=O)[C@H](CC(C)C)NC(=O)[C@@H](Cc2ccc3ccccc3c2)NC(=O)[C@H](CCCN=C(N)N)NC(=O)[C@H](C)NC1=O`, for which the Ki worked out at 9.9 nM. Still for that read-out and setting: under `CC(=O)N[C@H]1CCC(=O)NCC(=O)NCC[C@@H]2NC(=O)[C@H](CC(=O)NC[C@@H](C(N)=O)NC(=O)[C@@H]3CCCN3C(=O)[C@H](CCCNC(=N)N)NC(=O)[C@H](CC(C)C)NC(=O)[C@@H](Cc3ccc4ccccc4c3)NC2=O)NC(=O)[C@@H](Cc2c[nH]c3ccccc23)NC(=O)[C@@H](Cc2ccc(Cl)cc2)NC1=O` stands 0.24 nM.

Regarding `CC(=O)N[C@H]1CC(=O)NCC(=O)NCC[C@@H]2NC(=O)[C@H](CC(=O)NC[C@@H](C(N)=O)NC(=O)[C@@H]3CCCN3C(=O)[C@H](CCCN=C(N)N)NC(=O)[C@H](CC(C)C)NC(=O)[C@@H](Cc3ccc4ccccc4c3)NC2=O)NC(=O)[C@@H](Cc2c[nH]c3ccccc23)NC(=O)[C@@H](Cc2ccc(Cl)cc2)NC1=O`, the Ki is 0.22 nM. Where the note is “hek293”, `CC(C)C[C@@H]1NC(=O)[C@@H](Cc2ccc3ccccc3c2)NC(=O)[C@H](CCCNC(=N)N)NC(=O)[C@H](C)NC(=O)[C@@H](Cc2cccnc2)NC(=O)[C@@H](Cc2ccc(Cl)cc2)NC(=O)[C@@H](Cc2ccc3ccccc3c2)NC(=O)CCC(=O)NCCCC[C@@H](C(=O)N2CCC[C@H]2C(=O)N[C@H](C)C(N)=O)NC1=O` registered a Ki of 21 nM.

As to `CC(=O)N[C@H](Cc1ccc2ccccc2c1)C(=O)N[C@H](Cc1ccc(Cl)cc1)C(=O)N[C@@H]1CC(=O)NCCCC[C@@H](C(=O)N2CCC[C@H]2C(=O)N[C@H](C)C(N)=O)NC(=O)[C@H](CC(C)C)NC(=O)[C@@H](Cc2ccc3ccccc3c2)NC(=O)[C@H](CCCN=C(N)N)NC(=O)[C@H](C)NC1=O`, the Ki was determined as 2.3 nM. Same read-out and setting: under `CC(=O)N1CC=C[C@H]1C(=O)N[C@H](Cc1ccc(F)cc1)C(=O)N[C@H](Cc1c[nH]c2ccccc12)C(=O)N[C@H]1CC(=O)NC[C@@H](C(N)=O)NC(=O)[C@@H]2CCCN2C(=O)[C@H](CCCN=C(N)N)NC(=O)[C@H](CC(C)C)NC(=O)[C@@H](Cc2ccc3ccccc3c2)NC(=O)[C@H](Cc2ccc(O)cc2)NC1=O` (Ac-[ΔPro][dPhe(4-F)][dW]DY[d2Nal]LRP[Dap]-NH2; lactam 4-10) stands 0.27 nM; under `CC(C)C[C@H]1C(=O)N[C@@H](CCCN=C(N)N)C(=O)N2CCC[C@H]2C(=O)NCCC(=O)N2CC=C[C@H]2C(=O)N[C@H](Cc2ccc(Cl)cc2)C(=O)N[C@H](Cc2c[nH]c3ccccc23)C(=O)N[C@@H](CO)C(=O)N[C@@H](Cc2ccc(O)cc2)C(=O)N[C@H](Cc2c[nH]c3ccccc23)C(=O)N1C` (cyclo([NMeL]RP[βAla][ΔPro][dPhe(4-Cl)][dW]SY[dW])), 14 nM.
